Square brackets hold non-standard residues; d marks the D form. Peptide text beside a SMILES is read from it. * marks the point of attachment. Nle(5E-ene,6-CO2Et) = CCOC(=O)/C=C/CC[C@H](N)C(=O)O; DON = [N-]=[N+]=CC(=O)CC[C@H](N)C(=O)O; Cbz = O=C(OCc1ccccc1)*
Legend:
[1] = target: T1, hTG2 (Homo sapiens, UniProt P21980); assay: Fluorescent transamidation assay (DCC-assay), hTG2; type: biochemical; settings: for IC50: recombinant human TG2, transamidation assay, apparent IC50 of irreversible inhibitor, read-out: App. IC50 hTG2; for Fold less potent compared to ZED1227 (hTG2): same transamidation assay
T1 construct: purchased Zedira T022
T1 sequence (P21980 1-687): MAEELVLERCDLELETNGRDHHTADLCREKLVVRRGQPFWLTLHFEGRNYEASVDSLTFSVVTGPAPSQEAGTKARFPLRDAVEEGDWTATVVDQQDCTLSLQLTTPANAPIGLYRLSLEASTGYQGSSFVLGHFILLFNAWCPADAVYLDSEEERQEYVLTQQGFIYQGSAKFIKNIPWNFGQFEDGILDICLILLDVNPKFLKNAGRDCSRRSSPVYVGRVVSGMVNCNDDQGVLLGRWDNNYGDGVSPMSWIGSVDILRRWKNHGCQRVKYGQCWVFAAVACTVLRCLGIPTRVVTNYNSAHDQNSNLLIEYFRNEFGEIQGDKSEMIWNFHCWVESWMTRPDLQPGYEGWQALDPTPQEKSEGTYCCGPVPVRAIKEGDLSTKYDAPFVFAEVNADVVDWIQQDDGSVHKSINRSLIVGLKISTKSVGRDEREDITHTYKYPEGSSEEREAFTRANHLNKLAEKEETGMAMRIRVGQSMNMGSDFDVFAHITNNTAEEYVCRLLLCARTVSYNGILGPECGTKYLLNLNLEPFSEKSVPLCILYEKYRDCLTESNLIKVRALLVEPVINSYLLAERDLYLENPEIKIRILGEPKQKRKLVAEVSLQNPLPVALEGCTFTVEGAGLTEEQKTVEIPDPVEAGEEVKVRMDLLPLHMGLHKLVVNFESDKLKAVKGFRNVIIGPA
Procedure: Inhibition data were determined using the fluorescent transamidation assay (dansylcadaverine incorporation into glutamine-donor substrate N,N-dimethyl casein, DCC-assay). Briefly, to 15 μL of ZED1227 solution (dissolved and serial diluted in 2% (v/v) DMSO/assay buffer), 285 μL assay buffer [47.5 mM tris(hydroxymethyl)aminomethane, 9.5 mM CaCl2, 9.5 mM glutathione, 2.4% (v/v) glycerol, 190 mM NaCl, pH 8.0] containing dansylcadaverine (15.9 μM), N,N-dimethyl casein (3.8 μM) and the indicated recombinant transglutaminase enzyme [0.95 μg/mL hTG1 (T035), 0.81 μg/mL hTG2 (T022), 0.83 μg/mL hTG6 (T021), all from Zedira] were added, mixed and the kinetic measurement started immediately. In the case of hFXIII-A2 (0.83 μg/mL, T027, Zedira), the assay buffer contained human α-thrombin (5.2 × 10^−3 U/μL, T056, Zedira). The mixture was incubated for 20 min at room temperature to activate FXIII. In the case of hTG3a (0.81 μg/mL, T013, Zedira), full enzymatic activity was obtained by incubation for 80 min at 37 °C in assay buffer before addition of the inhibitor and start of the kinetics.
Fluorescence emission was continuously monitored for 30 min at λem = 500 nm (λex = 330 nm) and 37 °C using a CLARIOstar fluorescence plate reader (BMG Labtech, Ortenberg, Germany). All measurements were performed in triplicate. The respective IC50 (and IC90 for TG2) values were calculated by non-linear regression using the MARS software package (BMG Labtech). An irreversible-acting inhibitor, such as ZED1227, should, correctly, be characterized by the second-order rate constant k2nd, as detailed by Keillor [46]. However, such data are rather abstract and difficult to comprehend.
To facilitate comparability during lead structure optimization and to roughly estimate concentrations needed at the target site, the apparent IC50 values (calculated by four-parameter non-linear fit by MARS software) for irreversible inhibitors are more instructive and are therefore reported. Further, we report the potency of commercially available reference inhibitors Z006 (“Z-DON”), Z013 (ZED754), and T101 (all Zedira). To gain deeper mechanistic insight, we discuss the second-order rate constants (k2nd) published for Z006 and ZED754 in relation to their respective IC50 values.

[2] = target: TG2; parameters: method as in PMID 32045569; settings: TG2 catalyzed hydrolysis of Z-Glu(HMC)-Gly-OH at pH 6.5; cited from earlier work

CC(=O)CSc1n(C)c(C)c(C)[n+]1C.[Cl-] [T101]
IC50 [1]: 1780 nM
Fold less potent compared to ZED1227 (hTG2) [1]: 33 fold

CCOC(=O)/C=C/CC[C@H](NC(=O)OCc1ccccc1)C(=O)N[C@@H](CCC(N)=O)C(=O)N1CCC[C@H]1C(=O)N[C@@H](CC(C)C)C(=O)OC [ZED754] (Cbz-[Nle(5E-ene,6-CO2Et)]QPL-OMe)
IC50 [1]: 182 nM
Fold less potent compared to ZED1227 (hTG2) [1]: about 3.5 fold
Ki [2]: 450 nM
k2nd (second-order rate constant) [2]: 51,500 M^−1s^−1

COC(=O)[C@H](CC(C)C)NC(=O)[C@@H]1CCCN1C(=O)[C@@H](NC(=O)[C@H](CCC(=O)C=[N+]=[N-])NC(=O)OCc1ccccc1)C(C)C [Z006, Z-DON-Val-Pro-Leu-OMe] (Cbz-[DON]VPL-OMe)
IC50 [1]: 70 nM
Ki [2]: 96 nM
k2nd (second-order rate constant) [2]: 191,000 M^−1s^−1

Source: article PMC9139979, “Features of ZED1227: The First-In-Class Tissue Transglutaminase Inhibitor Undergoing Clinical Evaluation for the Treatment of Celiac Disease” (Cells, 2022)
